Where “and” joins values, the source holds several entries; their conditions need not be identical. Equal entries are not always repeated.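 Step 1: Grow cells in 96-well plates. Step 2: Expose to compound for 48 hours at 5 concentrations. Step 3: Interpolate endpoints linearly; if unreached, use highest concentration. GI50 is the concentration that inhibits growth by half. TGI: total growth inhibition.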
What was measured:
Assay in all cases: inhibition of tumour cell growth, NCI panel, 48 h; in the data active means GI50 below about 0.43 µM; inactive means the rest
OVCAR-5 ovarian = tested on: OVCAR-5 ovarian
DU-145 prostate = tested on: DU-145 prostate
TK-10 renal = tested on: TK-10 renal
KM12 colon = tested on: KM12 colon
NCI-H460 lung = tested on: NCI-H460 lung
COLO 205 colon = tested on: COLO 205 colon
M14 melanoma = tested on: M14 melanoma
OVCAR-4 ovarian = tested on: OVCAR-4 ovarian
MDA-MB-231 breast = tested on: MDA-MB-231 breast
SF-268 CNS = tested on: SF-268 CNS
CAKI-1 renal = tested on: CAKI-1 renal
HCC-2998 colon = tested on: HCC-2998 colon
NCI-H23 lung = tested on: NCI-H23 lung
A498 renal = tested on: A498 renal
SF-295 CNS = tested on: SF-295 CNS
HT29 colon = tested on: HT29 colon
SNB-19 CNS = tested on: SNB-19 CNS
UACC-257 melanoma = tested on: UACC-257 melanoma
EKVX NSCLC = tested on: EKVX NSCLC
UO-31 renal = tested on: UO-31 renal
BT-549 breast = tested on: BT-549 breast
SK-MEL-28 melanoma = tested on: SK-MEL-28 melanoma
HOP-92 NSCLC = tested on: HOP-92 NSCLC
SR leukemia = tested on: SR leukemia
A549 NSCLC = tested on: A549 NSCLC
SNB-75 CNS = tested on: SNB-75 CNS
UACC-62 melanoma = tested on: UACC-62 melanoma
SW-620 colon = tested on: SW-620 colon
MALME-3M melanoma = tested on: MALME-3M melanoma
HCT-116 colon = tested on: HCT-116 colon
NCI-H522 lung = tested on: NCI-H522 lung
RPMI-8226 leukemia = tested on: RPMI-8226 leukemia
IGROV1 ovarian = tested on: IGROV1 ovarian
SN12C renal = tested on: SN12C renal
SK-MEL-2 melanoma = tested on: SK-MEL-2 melanoma
SK-MEL-5 melanoma = tested on: SK-MEL-5 melanoma
MDA-N = tested on: MDA-N
PC-3 prostate = tested on: PC-3 prostate
HCT-15 colon = tested on: HCT-15 colon
MDA-MB-435 = tested on: MDA-MB-435
CCRF-CEM leukemia = tested on: CCRF-CEM leukemia
MOLT-4 leukemia = tested on: MOLT-4 leukemia
HOP-62 NSCLC = tested on: HOP-62 NSCLC
SK-OV-3 ovarian = tested on: SK-OV-3 ovarian
U251 CNS = tested on: U251 CNS
OVCAR-3 ovarian = tested on: OVCAR-3 ovarian
T-47D breast = tested on: T-47D breast
HL-60(TB) leukemia = tested on: HL-60(TB) leukemia
OVCAR-8 ovarian = tested on: OVCAR-8 ovarian
LOX IMVI melanoma = tested on: LOX IMVI melanoma
K-562 leukemia = tested on: K-562 leukemia
SF-539 CNS = tested on: SF-539 CNS
786-0 renal = tested on: 786-0 renal
MCF7 breast = tested on: MCF7 breast
NCI/ADR-RES ovarian = tested on: NCI/ADR-RES ovarian
ACHN renal = tested on: ACHN renal
HS 578T breast = tested on: HS 578T breast
NCI-H226 lung = tested on: NCI-H226 lung
RXF 393 renal = tested on: RXF 393 renal

COC(=O)Cc1c(C2C(CC(=O)OC)c3ccccc3N2C2OC(CO)C(O)C(O)C2O)[nH]c2ccccc12 (centres undefined)
> 100 µM: TGI (OVCAR-5 ovarian) | TGI (DU-145 prostate) | TGI (TK-10 renal) | TGI (KM12 colon) | TGI (NCI-H460 lung) | TGI (COLO 205 colon) | TGI (M14 melanoma) | TGI (OVCAR-4 ovarian) | TGI (MDA-MB-231 breast) | TGI (SF-268 CNS) | TGI (CAKI-1 renal) | TGI (HCC-2998 colon) | TGI (NCI-H23 lung) | TGI (A498 renal) | TGI (SF-295 CNS) | TGI (HT29 colon) | TGI (SNB-19 CNS) | TGI (UACC-257 melanoma) | TGI (EKVX NSCLC) | TGI (UO-31 renal) | TGI (BT-549 breast) | TGI (SK-MEL-28 melanoma) | TGI (HOP-92 NSCLC) | TGI (SR leukemia) | TGI (A549 NSCLC) | TGI (SNB-75 CNS) | TGI (UACC-62 melanoma) | TGI (SW-620 colon) | TGI (MALME-3M melanoma) | TGI (HCT-116 colon) | TGI (NCI-H522 lung) | TGI (RPMI-8226 leukemia) | TGI (IGROV1 ovarian) | TGI (SN12C renal) | TGI (SK-MEL-2 melanoma) | TGI (SK-MEL-5 melanoma) | TGI (MDA-N) | TGI (PC-3 prostate) | TGI (HCT-15 colon) | TGI (MDA-MB-435) | TGI (CCRF-CEM leukemia) | TGI (MOLT-4 leukemia) | TGI (HOP-62 NSCLC) | TGI (SK-OV-3 ovarian) | TGI (U251 CNS) | TGI (OVCAR-3 ovarian)

NC1(C(=O)N[C@@H](CCO)c2ccc(Cl)cc2)CCN(c2ncnc3[nH]ccc23)CC1
> 83.4 µM: TGI (NCI-H226 lung)
> 81.8 µM: TGI (RPMI-8226 leukemia)
0.69 µM and 5.83 µM: TGI (RXF 393 renal)
0.167 µM and 0.439 µM: GI50 (T-47D breast)
4 µM and 23.7 µM: TGI (UACC-62 melanoma)
active: GI50 (A498 renal) 0.0709 µM and 0.135 µM | GI50 (HOP-92 NSCLC) 0.167 µM and 0.144 µM | GI50 (SNB-75 CNS) 0.245 µM and 0.11 µM | GI50 (SF-539 CNS) 0.223 µM and 0.417 µM | GI50 (786-0 renal) 0.292 µM and 0.354 µM | GI50 (IGROV1 ovarian) 0.102 µM and 0.27 µM | GI50 (HS 578T breast) 0.177 µM and 0.421 µM | GI50 (RXF 393 renal) 0.13 µM and 0.354 µM
> 10 µM and 21.5 µM: TGI (MOLT-4 leukemia)
0.306 µM and 0.842 µM: GI50 (SK-OV-3 ovarian)
> 82.8 µM: TGI (SK-MEL-2 melanoma)
> 81.4 µM: TGI (M14 melanoma)
inactive: GI50 (OVCAR-5 ovarian) > 2.22 µM and 9.44 µM | GI50 (DU-145 prostate) > 2.74 µM and 29.7 µM | GI50 (TK-10 renal) 1.04 µM and 2.56 µM | GI50 (KM12 colon) 0.927 µM and 2.78 µM | GI50 (NCI-H460 lung) 0.679 µM and 1.74 µM | GI50 (COLO 205 colon) 1.9 µM and 10.9 µM | GI50 (M14 melanoma) > 2.68 µM and 9.15 µM | GI50 (OVCAR-4 ovarian) > 3.08 µM and 33.7 µM | GI50 (MDA-MB-231 breast) > 3.44 µM and 41 µM | GI50 (SF-268 CNS) > 2.26 µM and 32.2 µM | GI50 (CAKI-1 renal) > 2.14 µM and 14.1 µM | GI50 (HCC-2998 colon) > 2.1 µM and 8.17 µM | GI50 (NCI-H23 lung) > 3.45 µM and 13.9 µM | GI50 (SF-295 CNS) 0.455 µM and 0.482 µM | GI50 (HT29 colon) 2.5 µM and 5.26 µM | GI50 (SNB-19 CNS) 1.5 µM and 3.82 µM | GI50 (HL-60(TB) leukemia) > 4.63 µM and 24.2 µM | GI50 (UACC-257 melanoma) 3.8 µM and 7.39 µM | GI50 (EKVX NSCLC) 7.46 µM | GI50 (OVCAR-8 ovarian) > 4.3 µM and 42.5 µM | GI50 (UO-31 renal) 1.17 µM and 5.53 µM | GI50 (LOX IMVI melanoma) > 2.85 µM and 22.2 µM | GI50 (SK-MEL-28 melanoma) 1.69 µM and 7.47 µM | GI50 (K-562 leukemia) > 5.28 µM and 59.9 µM | GI50 (SR leukemia) 2.24 µM and 5.95 µM | GI50 (A549 NSCLC) > 3.15 µM and 12 µM | GI50 (UACC-62 melanoma) 0.608 µM and 1.85 µM | GI50 (SW-620 colon) > 3.5 µM and 24.8 µM | GI50 (MALME-3M melanoma) 0.977 µM and 2.38 µM | GI50 (HCT-116 colon) 2.75 µM and 10.7 µM | GI50 (NCI-H522 lung) > 2.05 µM and 17.1 µM | GI50 (RPMI-8226 leukemia) > 2.61 µM and 27.3 µM | GI50 (SN12C renal) 13.9 µM | GI50 (SK-MEL-2 melanoma) > 4.51 µM and 16.3 µM | GI50 (MCF7 breast) 0.632 µM and 1.72 µM | GI50 (SK-MEL-5 melanoma) > 3.51 µM and 19.1 µM | GI50 (PC-3 prostate) 0.86 µM and 0.841 µM | GI50 (HCT-15 colon) > 3.33 µM and 53.9 µM | GI50 (MDA-MB-435) 2.34 µM and 4.94 µM | GI50 (CCRF-CEM leukemia) 0.499 µM and 1.18 µM | GI50 (MOLT-4 leukemia) 0.505 µM and 0.644 µM | GI50 (HOP-62 NSCLC) 3.69 µM and 4.89 µM | GI50 (NCI/ADR-RES ovarian) > 100 µM | GI50 (U251 CNS) > 3.38 µM and 2 µM | GI50 (ACHN renal) > 2.01 µM and 9.6 µM | GI50 (OVCAR-3 ovarian) > 2.43 µM and 28 µM | GI50 (NCI-H226 lung) 2.14 µM and 7.92 µM
> 5.24 µM and 72.1 µM: TGI (UO-31 renal)
> 83.7 µM: TGI (COLO 205 colon)
1.54 µM and 1.53 µM: TGI (HOP-92 NSCLC)
> 10 µM and 78.6 µM: TGI (HCT-116 colon)
> 69.7 µM: TGI (TK-10 renal)
> 5.03 µM and 12.9 µM: TGI (SF-295 CNS)
0.366 µM and 0.624 µM: GI50 (BT-549 breast)
> 58.4 µM: TGI (CCRF-CEM leukemia)
0.522 µM and 0.939 µM: TGI (A498 renal)
> 3.28 µM and 2.19 µM: TGI (SNB-75 CNS)
> 5.59 µM and 62 µM: TGI (SK-MEL-5 melanoma)
> 90.3 µM: TGI (NCI-H522 lung)
> 77.2 µM: TGI (KM12 colon)
> 10 µM and 39.5 µM: TGI (SR leukemia)
> 67.8 µM: TGI (HL-60(TB) leukemia)
> 5.01 µM and 13 µM: TGI (BT-549 breast)
> 92.1 µM: TGI (A549 NSCLC)
2.42 µM and 13.2 µM: TGI (SF-539 CNS)
> 76.8 µM: TGI (T-47D breast)
> 3.09 µM and 38.5 µM: TGI (SK-OV-3 ovarian)
> 3.54 µM and 18.7 µM: TGI (MALME-3M melanoma)
> 100 µM: TGI (OVCAR-5 ovarian) | TGI (DU-145 prostate) | TGI (NCI-H460 lung) | TGI (OVCAR-4 ovarian) | TGI (MDA-MB-231 breast) | TGI (SF-268 CNS) | TGI (CAKI-1 renal) | TGI (HCC-2998 colon) | TGI (NCI-H23 lung) | TGI (HT29 colon) | TGI (SNB-19 CNS) | TGI (UACC-257 melanoma) | TGI (EKVX NSCLC) | TGI (OVCAR-8 ovarian) | TGI (LOX IMVI melanoma) | TGI (SK-MEL-28 melanoma) | TGI (K-562 leukemia) | TGI (SW-620 colon) | TGI (786-0 renal) | TGI (IGROV1 ovarian) | TGI (SN12C renal) | TGI (MCF7 breast) | TGI (PC-3 prostate) | TGI (HCT-15 colon) | TGI (MDA-MB-435) | TGI (HOP-62 NSCLC) | TGI (NCI/ADR-RES ovarian) | TGI (U251 CNS) | TGI (ACHN renal) | TGI (OVCAR-3 ovarian)

Cn1cnc(C(=N)[Se])c1N
> 27.1 µM: TGI (NCI-H23 lung)
8.89 µM: TGI (MALME-3M melanoma)
6.95 µM: TGI (RPMI-8226 leukemia)
6.26 µM: TGI (CCRF-CEM leukemia)
> 28 µM: TGI (SNB-19 CNS)
> 24.8 µM: TGI (TK-10 renal)
> 23.4 µM: TGI (HOP-62 NSCLC)
2.3 µM: TGI (SK-OV-3 ovarian)
4.18 µM: TGI (SF-539 CNS)
> 29.3 µM: TGI (MCF7 breast)
60.9 µM: TGI (CAKI-1 renal)
> 28.8 µM: TGI (KM12 colon)
4.38 µM: TGI (SNB-75 CNS)
> 26.4 µM: TGI (HS 578T breast)
3.15 µM: TGI (NCI/ADR-RES ovarian)
1.55 µM: TGI (NCI-H460 lung)
> 100 µM: TGI (OVCAR-5 ovarian) | TGI (DU-145 prostate) | TGI (T-47D breast) | TGI (M14 melanoma) | TGI (HCC-2998 colon) | TGI (HT29 colon) | TGI (UACC-257 melanoma) | TGI (LOX IMVI melanoma) | TGI (SK-MEL-28 melanoma) | TGI (HOP-92 NSCLC) | TGI (A549 NSCLC) | TGI (SW-620 colon) | TGI (HCT-116 colon) | TGI (SK-MEL-5 melanoma) | TGI (MDA-N) | TGI (HCT-15 colon) | TGI (MDA-MB-435)
> 28.6 µM: TGI (A498 renal)
14.9 µM: TGI (PC-3 prostate)
12.5 µM: TGI (NCI-H226 lung)
3.31 µM: TGI (OVCAR-8 ovarian)
4.94 µM: TGI (SF-268 CNS)
